{"source": "patent US9296728B2", "about": "“Therapeutic compounds” (Regents of the University of Minnesota, priority 2012, dated 2016)", "key": {"[1]": {"assay": "Toxicity study in healthy ICR mice (body weight, WBC, RBC)", "type": "in vivo", "settings": "for RBC ± SEM / WBC ± SEM: end of day 22", "description": "60 ICR mice weighing ˜27 grams were randomly assigned into 5 groups (12 animals, 6 male and 6 female per group), one group being the control group without any drug administration (food only). The drugs were administered twice daily by P.O. or I.P. Group 1 and 3 were administered orally with 50 mg/Kg of Compound 20 and 18 mg/Kg of Compound 14 respectively. Group 2 and 4 mice were injected intraperitoneally with 6.67 mg/Kg of Compound 20 and 5.3 mg/Kg of Compound 14 (dissolved in water) respectively. The body weights of mice were recorded daily for 22 days. At the end of the 22nd day, 3 mice were randomly selected from each group and their blood samples were collected for detailed analysis of white blood cell (WBC) and red blood cell (RBC) counts. The mice were then euthanized with CO2."}, "[2]": {"system": "WiDr xenograft tumor model", "assay": "Anticancer efficacy in Balb/c nude mice, WiDr xenograft (Example 8)", "type": "in vivo", "settings": "BALB/c nude mice with WiDr xenograft, 50-100 mg/Kg p.o. or i.p.", "description": "Female BALB/c nude mice weighing ˜20 g were taken and 5.0 10^6 WiDr cancer cells were implanted into their right flanks with 1:1 mixture of 0.1 mL PBS and matrigel. The mice were arbitrarily chosen by chance and assigned into 7 groups (6 animals/group) and the treatment was started from the same day of the implantation of cancer cells. Mice in group 1 were orally administered two times daily with 100 mg/Kg of Compound 20. Mice in group 2 were orally administered four times per day with 50 mg/Kg of Compound 20. Group 3 mice were injected intraperitoneally 2 times per day with 100 mg/Kg of Compound 20. Group 4 mice were injected intraperitoneally one time per day with 100 mg/Kg and group 5 mice were injected intraperitoneally 2 times per day with 50 mg/Kg of Compound 20. Group 6 was treated with 0.2 mL of 2% DMSO in water intraperitoneally 4 times daily and group 7 mice were assigned as the control group to which tumor was allowed to grow without any drug administration (food only). The tumor volume was recorded every two days using the formula\n[formula] where a is the long diameter of the tumor and b is the short diameter of the tumor. […] The inhibition rate was determined using the formula:\n[formula] where C is average tumor weight of control group, T is average tumor weight of test group. […] The inhibition rate was determined using the above formula."}, "[3]": {"assay": "Toxicity study in BALB/c nude mice containing WiDr colorectal adenocarcinoma xenograft (body weight)", "type": "in vivo", "settings": "BALB/c nude mice with WiDr xenograft", "description": "Female BALB/c nude mice weighing ˜20 g were taken and 5.0 10^6 WiDr cancer cells were implanted into their right flanks with a 1:1 mixture of 0.1 mL PBS and matrigel. The tumor was allowed to grow to a size of ˜150 cubic millimeters (14 days). The mice were randomly chosen by chance and assigned into 5 groups (6 mice per group), one group being the control group to which tumor was allowed to grow without any drug administration (food only). The drugs were administered twice daily by P.O. or I.P. Group 1 mice were administered orally with 50 mg/kg of Compound 20. Groups 2, 3 and 4 mice were treated via IP with 10 mg/kg Compound 20, 8 mg/kg of Compound 14 and 238 mg/kg CHC respectively. Body weight changes were recorded every two days for 3 weeks."}, "MCT1": {"biological_target": "MCT1 (Rattus norvegicus (Rat), UniProt P53987)", "sequence (P53987 whole entry)": "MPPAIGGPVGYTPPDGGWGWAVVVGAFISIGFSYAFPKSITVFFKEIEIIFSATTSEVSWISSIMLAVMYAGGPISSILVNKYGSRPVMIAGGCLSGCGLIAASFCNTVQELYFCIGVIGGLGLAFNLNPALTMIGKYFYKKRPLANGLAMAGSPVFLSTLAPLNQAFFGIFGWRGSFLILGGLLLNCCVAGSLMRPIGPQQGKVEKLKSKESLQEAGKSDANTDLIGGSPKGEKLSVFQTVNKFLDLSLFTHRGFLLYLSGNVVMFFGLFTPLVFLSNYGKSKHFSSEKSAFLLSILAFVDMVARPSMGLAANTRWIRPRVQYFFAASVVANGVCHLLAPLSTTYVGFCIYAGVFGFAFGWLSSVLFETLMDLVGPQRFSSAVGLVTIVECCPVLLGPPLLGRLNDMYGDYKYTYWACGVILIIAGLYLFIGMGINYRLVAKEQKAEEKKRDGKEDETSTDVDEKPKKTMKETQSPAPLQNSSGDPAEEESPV", "sequence (P26453 141-388 partner)": "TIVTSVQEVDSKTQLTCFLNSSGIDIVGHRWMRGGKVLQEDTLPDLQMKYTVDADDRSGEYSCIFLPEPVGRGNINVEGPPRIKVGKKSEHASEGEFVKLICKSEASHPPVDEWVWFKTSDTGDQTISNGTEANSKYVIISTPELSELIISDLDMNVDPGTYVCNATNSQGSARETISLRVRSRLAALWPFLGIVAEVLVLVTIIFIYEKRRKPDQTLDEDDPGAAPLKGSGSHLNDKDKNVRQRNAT", "assay": "Test A. MCT1 inhibition via lactate uptake in rat brain endothelial (RBE4) cells", "type": "cell-based", "settings": "14C-lactate uptake", "description": "Test A. MCT1 Inhibition Via Lactate Uptake Rat Brain Endothelial Cells\nThe entire lactate uptake studies for the inhibition of MCT1 were carried out on RBE4 (Rat Brain Endothelial 4) cells. The expression of MCT1 on these cells was confirmed by Western Blotting. The cells were plated approximately 20-24 hours before the experiment, the number of cells being approximately 10^5 cells per well. The test compounds were dissolved in DMSO and diluted 1000 times using a solution of HEPES buffer (pH 7.43) which consists of 3 μM ^14C-Lactate and 2 μM L-Lactate. The cells were washed twice with 500 μL of HEPES buffer and the cells were allowed to equilibrate for 15 minutes at 37° C. The HEPES buffer was removed and 250 μL of the test sample was added in triplicates. This was repeated for all the compounds, including the controls (CHC and DMSO). After 15 minutes, the compounds were removed from the well and 500 μL of ice-cold stop buffer (0.1 mM CHC solution in HEPES buffer) was added. The plate was kept on ice. Now, the HEPES buffer in one triplicate was removed and DMSO solution was added and immediately removed and ice-cold stop buffer was added. This was considered as “Zero”. One triplicate was left blank, which was used for protein assay after lysing the cells. The cells were washed twice with ice-cold HEPES buffer and then 250 μL of 0.1M NaOH in 5% Triton-X solution was added and the plate is kept on a shaker for 40 minutes to lyse the cells. 150 μL of the lysed cells was added into 4 mL of the scintillation fluid in a scintillation vial and scintillation count was obtained in disintegrations per minute (dpm). The percent inhibition values were calculated by taking DMSO as minimum. Concentration study (usually 9-12 dilutions) was done to determine the IC50 of each compound."}}}
{"molecule": "COc1cc(N(c2ccccc2)c2ccccc2)ccc1/C=C(\\C#N)C(=O)O", "note": "[Compound 20]", "values": [{"measurement": "Weight in grams (Day 0)", "setting": "[1]; 6.67 mg/kg i.p. twice daily", "value": 26.98, "unit": "grams"}, {"measurement": "Weight in grams (Day 22)", "setting": "[1]; 6.67 mg/kg i.p. twice daily", "value": 33.54, "unit": "grams"}, {"measurement": "RBC ± SEM", "setting": "[1]; 6.67 mg/kg i.p. twice daily", "value": "1.82 ± 0.05 10^13/L"}, {"measurement": "WBC ± SEM", "setting": "[1]; 6.67 mg/kg i.p. twice daily", "value": "3.83 ± 0.38 10^10/L"}, {"measurement": "Weight in grams (Day 0)", "setting": "[1]; 50 mg/kg p.o. twice daily", "value": 26.91, "unit": "grams"}, {"measurement": "Weight in grams (Day 22)", "setting": "[1]; 50 mg/kg p.o. twice daily", "value": 32.61, "unit": "grams"}, {"measurement": "RBC ± SEM", "setting": "[1]; 50 mg/kg p.o. twice daily", "value": "1.75 ± 0.06 10^13/L"}, {"measurement": "WBC ± SEM", "setting": "[1]; 50 mg/kg p.o. twice daily", "value": "4.10 ± 0.3 10^10/L"}, {"measurement": "systemic toxicity (inference from Example 8)", "setting": "[2]", "value": "without much systemic toxicity"}, {"measurement": "Weight in grams (Day 0)", "setting": "[3]; 10 mg/kg i.p. twice daily", "value": 21.93, "unit": "grams"}, {"measurement": "Weight in grams (Day 22)", "setting": "[3]; 10 mg/kg i.p. twice daily", "value": 23.38, "unit": "grams"}, {"measurement": "Weight in grams (Day 0)", "setting": "[3]; 50 mg/kg p.o. twice daily", "value": 21.85, "unit": "grams"}, {"measurement": "Weight in grams (Day 22)", "setting": "[3]; 50 mg/kg p.o. twice daily", "value": 23.01, "unit": "grams"}, {"measurement": "IC50", "setting": "MCT1", "value": 0.008, "unit": "µM"}]}
